Test [1] deals with T1, adenosine A-1 receptor (Rattus norvegicus, UniProt P25099).
T1 sequence (P25099 1-326): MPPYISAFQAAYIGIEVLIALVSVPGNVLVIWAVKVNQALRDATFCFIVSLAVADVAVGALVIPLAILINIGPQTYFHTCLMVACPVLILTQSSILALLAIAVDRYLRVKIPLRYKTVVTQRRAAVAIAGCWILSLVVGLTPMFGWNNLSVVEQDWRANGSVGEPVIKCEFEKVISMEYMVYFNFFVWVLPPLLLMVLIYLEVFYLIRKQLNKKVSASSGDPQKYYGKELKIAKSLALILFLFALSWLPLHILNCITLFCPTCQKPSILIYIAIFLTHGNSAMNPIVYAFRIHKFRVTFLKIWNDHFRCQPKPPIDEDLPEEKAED
Kind of test: biochemical.

Test [2] deals with T2, adenosine A-2 receptors (Rattus norvegicus, UniProt P30543).
T2 construct: from tissue; host or cells: rat brain striatum membranes (young male C-D strain rats, Charles River)
T2 sequence (P30543 whole entry): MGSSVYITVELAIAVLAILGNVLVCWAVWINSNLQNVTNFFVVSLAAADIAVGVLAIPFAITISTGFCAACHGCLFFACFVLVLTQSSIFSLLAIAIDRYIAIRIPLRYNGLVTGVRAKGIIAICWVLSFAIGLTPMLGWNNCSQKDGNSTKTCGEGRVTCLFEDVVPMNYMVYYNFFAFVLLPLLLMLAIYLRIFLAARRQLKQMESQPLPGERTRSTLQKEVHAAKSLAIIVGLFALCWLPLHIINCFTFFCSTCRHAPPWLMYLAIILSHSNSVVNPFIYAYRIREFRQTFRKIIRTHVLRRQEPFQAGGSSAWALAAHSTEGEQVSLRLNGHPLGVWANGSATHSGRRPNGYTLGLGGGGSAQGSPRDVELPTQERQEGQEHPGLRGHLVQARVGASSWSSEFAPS
In words: Test for affinity for brain adenosine A-2 receptors ([3H]NECA competition, striatal membranes). In kind it is binding. Conditions: rat brain striatum membranes, [3H]NECA 94 nM, 25°C, 60 minutes; read-out: A-2 Receptor Ki. Here is the method:
Membranes for ligand binding are isolated from rat brain striatum. The tissue is homogenized in 20 vol. ice-cold 50 mM Tris-HCl buffer (pH 7.7) using a polytron (setting for 6 to 20 seconds). The homogenate is centrifuged at 50,000 x g for 10 minutes at 4°C. The pellet is again homogenized in a polytron in 20 vol. of buffer, and centrifuged as before. The pellet is finally resuspended in 40 vol. of 50 mM Tris-HCl (pH 7.7) per gram of original wet weight of tissue.
Incubations are carried out at 25°C for 60 minutes. Each tube is filtered through GF/B glass fiber filters using a vacuum. The filters are rinsed two times with 5 ml of the ice-cold buffer. […] The filters are counted by liquid scintillation spectrometry.
Specific binding of [3H]NECA is measured as the excess over blank runs in the presence of 100 µM 2-chloroadenosine. Total membrane-bound radioactivity is about 2.5% of that added to the test tubes. […] Specific binding to membranes is about 50% of the total bound.

For test [3], the target named is A-2 receptors. Conditions: brain slice assay; cited from earlier work.
Test [4] relates to adenosine receptors. Conditions: in vivo; cited from earlier work.

Where only a bound is given, the exact number is not on record here.

As for `CCCOC1=Nc2c(cnn2-c2ccccc2)C2=N[C@H](Cc3ccccc3)CN12` [Compound 1, (R)-2,7-dihydro-7-phenyl-2-(phenylmethyl)-5-propoxy-3H-imidazo[1,2-c]pyrazolo[4,3-e]pyrimidine], the Ki (commonly a measure of affinity in units of concentration, obtained from inhibition or displacement) in test [1] was 1.24 µM; in test [2], more than 6.99 µM.

On to `CCCOC1=Nc2c(cnn2-c2ccccc2)C2=N[C@@H](Cc3ccccc3)CN12` [Compound 2, (S)-2,7-dihydro-7-phenyl-2-(phenylmethyl)-5-propoxy-3H-imidazo[1,2-c]pyrazolo[4,3-e]pyrimidine], for which the Ki was 2.68 µM in test [1] and 0.508 µM in test [2].

`C1=Nc2c(cnn2-c2ccccc2)C2=N[C@H](Cc3ccccc3)CN12` [Compound 3, (R)-2,7-dihydro-7-phenyl-2-(phenylmethyl)-3H-imidazo[1,2-c]pyrazolo[4,3-e]pyrimidine]: the inhibitory constant (Ki) in test [1] came out at 1.9 µM; in test [2] it was 25 µM.

As for `C1=Nc2c(cnn2-c2ccccc2)C2=N[C@@H](Cc3ccccc3)CN12` [Compound 4, (S)-2,7-dihydro-7-phenyl-2-(phenylmethyl)-3H-imidazo[1,2-c]pyrazolo[4,3-e]pyrimidine], the Ki is 10 µM in test [1] and more than 199 µM in test [2].

In the case of `C1=Nc2c(ncn2-c2ccccc2)C2=N[C@@H](Cc3ccccc3)CN12` [Compound 5, (S)-7,8-dihydro-3-phenyl-8-(phenylmethyl)-3H-diimidazo[1,2-c:4',5'-e]pyrimidine], the values for the Ki in test [1] and in test [2] were 44.6 µM and more than 199 µM, respectively.

Turning to `C1=Nc2c(ncn2-c2ccccc2)C2=N[C@H](Cc3ccccc3)CN12` [Compound 6, (R)-7,8-dihydro-3-phenyl-8-(phenylmethyl)-3H-diimidazo[1,2-c:4',5'-e]pyrimidine], the Ki in test [1] was found to be 8.4 µM; in test [2], 100 µM.

As to `CCCOC1=Nc2c(cnn2-c2ccccc2)C2=N[C@H](C)[C@@H](c3ccccc3)N12` [Compound 7, (2R-trans)-2,7-dihydro-2-methyl-3,7-diphenyl-5-propoxy-3H-imidazo[1,2-c]pyrazolo[4,3-e]pyrimidine], the results for the Ki in test [1] and in test [2] were 12.1 µM and 14.2 µM, respectively.

Turning to `C1=Nc2nc[nH]c2C2=N[C@H](Cc3ccccc3)CN12` [Compound 9, (R)-7,8-dihydro-8-(phenylmethyl)-1H-diimidazo[1,2-c:4',5'-e]pyrimidine], the Ki in test [1] was 199 µM; in test [2], more than 199 µM.

For the compound `C1=Nc2nc[nH]c2C2=N[C@@H](Cc3ccccc3)CN12` [Compound 10, (S)-7,8-dihydro-8-(phenylmethyl)-1H-diimidazo[1,2-c:4',5'-e]pyrimidine], the Ki in test [1] is 199 µM; in test [2], more than 199 µM.

On to `OC[C@H]1O[C@@H](n2cnc3c2N=CN2C[C@H](Cc4ccccc4)N=C32)[C@H](O)[C@@H]1O` [Compound 13, (S)-7,8-dihydro-3-(β-D-ribofuranosyl)-8-(phenylmethyl)-3H-diimidazo[1,2-c:4',5'-e]pyrimidine], for which the Ki came out at 4.5 µM in test [1] and 10.6 µM in test [2].

`OC[C@H]1O[C@@H](n2cnc3c2N=CN2C[C@@H](Cc4ccccc4)N=C32)[C@H](O)[C@@H]1O` [Compound 14, (R)-7,8-dihydro-3-(β-D-ribofuranosyl)-8-(phenylmethyl)-3H-diimidazo[1,2-c:4',5'-e]pyrimidine]: the Ki stood at 65 µM in test [1] and 46.8 µM in test [2].

Consider `CCCn1c(=O)c2[nH]c(-c3ccc(OCC(=O)NCCN)cc3)nc2n(CCC)c1=O` [XAC], for which the Ki in test [3] was 49 ± 17 nM. In addition, in test [4], the “potency in antagonizing the effects of adenosine analogs on heart rate versus blood pressure” value is “much more potent in antagonizing the effects of adenosine analogs on heart rate than on blood pressure”.

As to `CCCn1c(=O)c2[nH]c(-c3ccc(OCC(=O)O)cc3)nc2n(CCC)c1=O` [XCC], the Ki in test [3] is 34 ± 13 nM.

These data come from patent publication EP0390111B1 (MERRELL DOW PHARMACEUTICALS INC., priority 1989, dated 1990).
